# Measured values reported in the NIST ThermoML archive (doi:10.1021/je700063c).
# ± gives the expanded uncertainty stated by the source.
# Settings: Liquid; for mass density: 298.15 K, 101.33 kPa, Pycnometric method; for Normal boiling temperature: Distillation
SMILES,mass density [kg/m3],Normal boiling temperature [°C]
CC(C)CO [2-methyl-1-propanol],797.8 ± 0.7,107.77 ± 0.1
CCCCO [butan-1-ol],805.8 ± 0.7,
CCC(C)O (stereo not given) [butan-2-ol],802.4 ± 0.7,99.46 ± 0.1
